From patent US20160251403A1, “PEPTIDE COMBINATIONS AND USES THEREOF IN TREATING DUST MITE ALLERGY” (ALK-ABELLO A/S, priority 2013, published 2016)
No end group written: not given here.

Assays:
[1] = system: allergen specific T cells; assay: T cell proliferation assay (72 h) with allergen-specific T cell lines from house dust mite allergic donors; % responders; type: cell-based, human; details: FIGS. 9b, 9c; subset of 22 donors having about 88% worldwide HLA Class II coverage
Procedure: This example includes a description of how peptides (singly or in combination) were screened for T cell reactivity in the donor population.
The T cell reactivity to peptides disclosed herein was determined either by measuring T cell proliferation of T cell lines specific to the allergens investigated or by measuring the cytokine production of allergen-specific T cells obtained from cultured PBMCs.
TCL specific to the six allergens rproDer p 1, rproDer f 1, rDer p 2, rDer f 2, Der p 4 and Der p 7, respectively or specific to the combination of all six allergens were established from peripheral blood mononuclear cells (PBMCs) of each donor.
PBMCs were isolated from freshly drawn heparinized blood by gradient centrifugation on lymphoprep (Nycomed, Norway), washed twice and re-suspended in RPMI 1640 medium with HEPES and ultraglutamine (Cambrex, Belgium) supplemented with 5% v/v AB-serum (Cambrex, Belgium), 100 units/ml penicillin, and 0.1 mg/ml streptomycin (Sigma, St Louis, USA) (referred to as AB-medium). Isolated PBMCs were CD8 depleted by Macs magnetic depletion according to the manufacturer's instructions (Miltenyi Biotec, Bergisch Gladbach, Germany). […]
The capacity of the different peptides to stimulate allergen specific T cells is analyzed in a standard 72 h T cell proliferation assay, as described in Henmar H et al., Clin Exp Immunol 2008; […]):316-23. […]

DRB1_0301 = DRB1_0301 (Homo sapiens, UniProt P01903+P01911, A100K/A102G/A103R/A169T/F55Y/I96L/K41T/L162R/M171V/P40S/Q125H/Q178H/Q39Y/R42S/S66N/T106N/T262R/W38E/Y61H); assay: Competitive MHC class II binding assay, DRB1_0301
DPA10103-DPB10401 = target: T1, DPA10103-DPB10401 (Homo sapiens, UniProt P04440+P20036); assay: Competitive MHC class II binding assay, DPA10103-DPB10401
T1 sequence (P20036 29-260): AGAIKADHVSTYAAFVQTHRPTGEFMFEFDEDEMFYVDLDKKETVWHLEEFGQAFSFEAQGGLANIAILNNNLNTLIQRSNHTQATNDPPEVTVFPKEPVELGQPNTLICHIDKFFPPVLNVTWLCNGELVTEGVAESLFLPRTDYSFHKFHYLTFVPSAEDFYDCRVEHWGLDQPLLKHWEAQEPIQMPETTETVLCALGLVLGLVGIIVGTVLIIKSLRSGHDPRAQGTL
T1 sequence (P04440 30-258): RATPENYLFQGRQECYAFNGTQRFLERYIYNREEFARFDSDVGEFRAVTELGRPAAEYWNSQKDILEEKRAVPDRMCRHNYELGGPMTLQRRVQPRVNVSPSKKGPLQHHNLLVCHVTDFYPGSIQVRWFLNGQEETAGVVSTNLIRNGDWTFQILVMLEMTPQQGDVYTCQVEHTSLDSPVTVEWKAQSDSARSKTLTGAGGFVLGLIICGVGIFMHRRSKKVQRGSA

| IC50 (DRB1_0301) [nM] | IC50 (DPA10103-DPB10401) [nM] | Sequence | fraction of donors with T cell response (% donor response) [1] |
| --- | --- | --- | --- |
| – | – | LVKGQQYDIKYTWNVPKIAPK [pep-131] | higher percentage donor response than the other peptides |
| < 1000 | – | LVGDNGVLASAIATHAKIRD [pep-110] | higher percentage donor response than the other peptides |
| – | < 1000 | DNGYGYFAANIDLMMIEE [pep-010] | – |
